In patent US20050112573A1, “Method of detecting toxic substance” (priority 2001, published 2005):

System: yeast genes (level of expressed mRNA)
Test: DNA chip analysis of expressed mRNA of yeast genes after 2 h culture with a toxic chemical substance
Format: cell-based, Saccharomyces cerevisiae S288C
Details: for The level of expressed mRNA in the presence of chemical substance/ (ratio to absence of chemical substance): stress protein genes, DNA chip
Method: Yeast (Saccharomyces cerevtisiae S288C (α SUC2mal mel gap2 CUP1)) were cultured at 25° C. on YPD medium (yeast extract 1%, polypepton 2%, glucose 2%). One of toxic chemical substances was added to the cell at logarithmic growth phase, and the cell was further cultured for two hours. Cell was cultured without any chemical substance in the same condition, and was used as control. Concentrations of the chemical substances were defined to inhibit the growth of the yeast but not lead to death.
After the completion of cultivation, the culture was centrifuged to collect the cells. To the cells, sodium acetate buffer (50 mM sodium acetate, 10 mM EDTA, 1% SDS) was added, and the mixture was shaken at 65° C. for five minutes, followed by returning to room temperature, and obtaining the supernatant, which procedure was repeated two times. To the supernatant, ½ amount of a solution of phenol/chloroform was added, and the mixture was centrifuged to give a supernatant, which was added with an equal amount of chloroform, and the mixture was centrifuged to give a supernatant. To the supernatant, an equal amount of isopropanol containing 0.3 M sodium acetate was added, and the mixture was allowed to stand at room temperature for 30 minutes, after which the mixture was centrifuged to give a sediment of the whole RNAs. Seventy % ethanol was added to the sediment, and the mixture was again centrifuged to give a sediment, which was then dried and dissolved in water. mRNA was isolated from the whole RNAs as followings. In view of the fact that a poly A chain is attached to the 3′ terminus of mRNA, a polynucleotide having a poly T structure which was immobilized on the surface of latex beads was used to trap the mRNA, and then the mRNA was washed and eluted with spine column (Oligotex-dT30<Super>mRNA Purification Kit, Takara). Reverse transcription of the mRNA was conducted with a reverse transcriptase (Super Script II Reverse Transcriptase; catalogue No. 18064-014, GibcoBRL) using fluorescence-labeled nucleotides to give cDNAs that were introduced with Cy3-dUTP or Cy5-dUTP during the reverse transcription.
The labeled cDNAs were dissolved in TE buffer (10 mM Tris-HCl/1 mM EDTA, pH8.0), and the solution was dropped on the DNA chip containing the whole genes of yeast (DNA Chip Research Inc. Japan) so that the cDNAs were hybridized on the DNA chip at 65° C. for over 12 hours. The fluoresces intensity of the DNA chip was read with a scanner, and the ratio relative to the fluorescence intensity resulting from the absence of chemical substance was estimated as the following, which is shown in Tables 1 to 9: [formula]
In the Tables, “Intensity” indicated in the rightmost column is a value of the level of expressed mRNA of each gene in control cells as divided by the average level of the expressions of the whole genes.

## C[S+](C)[O-] [(15), dimethylsulfoxide]
Yeast gene YDL078C, ratio of DNA chip fluorescence intensity to that without chemical substance
  The level of expressed mRNA in the presence of chemical substance/ in its absence, gene YDL078C: 0.5
Yeast gene YDL215C, ratio of DNA chip fluorescence intensity to that without chemical substance
  The level of expressed mRNA in the presence of chemical substance/ (in its absence), gene YDL215C: 1.1
Yeast gene YDL238C
  The level of expressed mRNA in the presence of chemical substance/The level of expressed mRNA in the absence of chemical substance: 1.3
Yeast gene YDR055W
  The level of expressed mRNA in the presence of chemical substance/The level of expressed mRNA in the absence of chemical substance: 5.7
Yeast gene YDR073W, ratio of DNA chip fluorescence intensity to that without chemical substance
  The level of expressed mRNA in the presence of chemical substance/ (in its absence), gene YDR073W: 0.8
Yeast gene YDR079W, energy system protein genes, 2 h culture with the chemical, ratio to control without chemical
  The level of expressed mRNA in the presence of chemical substance/ in its absence, gene YDR079W: 0.6
Yeast gene YDR079W, mitochondria-located protein genes, 2 h culture with chemical
  The level of expressed mRNA in the presence of chemical substance/ (ratio to absence), gene YDR079W: 0.6
Yeast gene YDR084C
  The level of expressed mRNA in the presence of chemical substance/The level of expressed mRNA in the absence of chemical substance: 3.9
Yeast gene YDR085C
  The level of expressed mRNA in the presence of chemical substance/The level of expressed mRNA in the absence of chemical substance: 3.1
Yeast gene YDR104C
  The level of expressed mRNA in the presence of chemical substance/The level of expressed mRNA in the absence of chemical substance: 1.4
Yeast gene YDR115W
  The level of expressed mRNA in the presence of chemical substance/The level of expressed mRNA in the absence of chemical substance: 0.8
Yeast gene YDR259C
  The level of expressed mRNA in the presence of chemical substance/The level of expressed mRNA in the absence of chemical substance: 2.9
Yeast gene YDR297W, ratio of DNA chip fluorescence intensity to that without chemical substance
  The level of expressed mRNA in the presence of chemical substance/ (in its absence), gene YDR297W: 1.4
Yeast gene YDR315C
  The level of expressed mRNA in the presence of chemical substance/The level of expressed mRNA in the absence of chemical substance: 1.5
Yeast gene YDR358W
  The level of expressed mRNA in the presence of chemical substance/The level of expressed mRNA in the absence of chemical substance: 0.9
Yeast gene YDR377W, mitochondria-located protein genes, 2 h culture with chemical
  The level of expressed mRNA in the presence of chemical substance/ (ratio to absence), gene YDR377W: 0.6
Yeast gene YDR387C, ratio of DNA chip fluorescence intensity to that without chemical substance
  The level of expressed mRNA in the presence of chemical substance/ (in its absence), gene YDR387C: 1.4
Yeast gene YDR388W
  The level of expressed mRNA in the presence of chemical substance/The level of expressed mRNA in the absence of chemical substance: 2.6
Yeast gene YDR481C
  The level of expressed mRNA in the presence of chemical substance/The level of expressed mRNA in the absence of chemical substance: 3.5
Yeast gene YDR510W
  The level of expressed mRNA in the presence of chemical substance/The level of expressed mRNA in the absence of chemical substance: 2.2
Yeast gene YEL039C
  The level of expressed mRNA in the presence of chemical substance/ (ratio to absence of chemical substance): 0.4
Yeast gene YEL066W
  The level of expressed mRNA in the presence of chemical substance/The level of expressed mRNA in the absence of chemical substance: 1.0
Yeast gene YER015W, ratio of DNA chip fluorescence intensity to that without chemical substance
  The level of expressed mRNA in the presence of chemical substance/ (in its absence), gene YER015W: 0.8
Yeast gene YER039C
  The level of expressed mRNA in the presence of chemical substance/The level of expressed mRNA in the absence of chemical substance: 1.2
Yeast gene YER057C
  The level of expressed mRNA in the presence of chemical substance/ (ratio to absence of chemical substance): 1.7
Yeast gene YER107C
  The level of expressed mRNA in the presence of chemical substance/The level of expressed mRNA in the absence of chemical substance: 0.7
Yeast gene YER130C
  The level of expressed mRNA in the presence of chemical substance/The level of expressed mRNA in the absence of chemical substance: 1.1
Yeast gene YFL028C
  The level of expressed mRNA in the presence of chemical substance/The level of expressed mRNA in the absence of chemical substance: 0.8
Yeast gene YFL043C
  The level of expressed mRNA in the presence of chemical substance/The level of expressed mRNA in the absence of chemical substance: 1.1
Yeast gene YGL035C, ratio of DNA chip fluorescence intensity to that without chemical substance
  The level of expressed mRNA in the presence of chemical substance/ (in its absence), gene YGL035C: 1.0
Yeast gene YGL115W, ratio of DNA chip fluorescence intensity to that without chemical substance
  The level of expressed mRNA in the presence of chemical substance/ (in its absence), gene YGL115W: 0.7
Yeast gene YGL115W
  The level of expressed mRNA in the presence of chemical substance/ (ratio to absence of chemical substance): 0.7
Yeast gene YGL158W
  The level of expressed mRNA in the presence of chemical substance/The level of expressed mRNA in the absence of chemical substance: 2.3
Yeast gene YGL187C, mitochondria-located protein genes, 2 h culture with chemical
  The level of expressed mRNA in the presence of chemical substance/ (ratio to absence), gene YGL187C: 0.3
Yeast gene YGL205W, ratio of DNA chip fluorescence intensity to that without chemical substance
  The level of expressed mRNA in the presence of chemical substance/ (in its absence), gene YGL205W: 2.0
Yeast gene YGL229C
  The level of expressed mRNA in the presence of chemical substance/The level of expressed mRNA in the absence of chemical substance: 0.2
Yeast gene YGR062C, energy system protein genes, 2 h culture with the chemical, ratio to control without chemical
  The level of expressed mRNA in the presence of chemical substance/ in its absence, gene YGR062C: 0.5
Yeast gene YGR062C, mitochondria-located protein genes, 2 h culture with chemical
  The level of expressed mRNA in the presence of chemical substance/ (ratio to absence), gene YGR062C: 0.5
Yeast gene YGR096W, ratio of DNA chip fluorescence intensity to that without chemical substance
  The level of expressed mRNA in the presence of chemical substance/ (in its absence), gene YGR096W: 0.9
Yeast gene YGR136W
  The level of expressed mRNA in the presence of chemical substance/The level of expressed mRNA in the absence of chemical substance: 2.6
Yeast gene YGR189C
  The level of expressed mRNA in the presence of chemical substance/The level of expressed mRNA in the absence of chemical substance: 9.3
Yeast gene YGR213C
  The level of expressed mRNA in the presence of chemical substance/The level of expressed mRNA in the absence of chemical substance: 6.5
Yeast gene YGR257C
  The level of expressed mRNA in the presence of chemical substance/The level of expressed mRNA in the absence of chemical substance: 1.3
Yeast gene YGR287C, ratio of DNA chip fluorescence intensity to that without chemical substance
  The level of expressed mRNA in the presence of chemical substance/ (in its absence), gene YGR287C: 2.3
Yeast gene YGR288W, ratio of DNA chip fluorescence intensity to that without chemical substance
  The level of expressed mRNA in the presence of chemical substance/ (in its absence), gene YGR288W: 0.8
Yeast gene YHL028W
  The level of expressed mRNA in the presence of chemical substance/ (ratio to absence of chemical substance): 0.6
Yeast gene YHL046C
  The level of expressed mRNA in the presence of chemical substance/ (ratio to absence of chemical substance): 1.0
Yeast gene YHR004C
  The level of expressed mRNA in the presence of chemical substance/The level of expressed mRNA in the absence of chemical substance: 1.2
Yeast gene YHR071W
  The level of expressed mRNA in the presence of chemical substance/The level of expressed mRNA in the absence of chemical substance: 3.0
Yeast gene YHR139C
  The level of expressed mRNA in the presence of chemical substance/The level of expressed mRNA in the absence of chemical substance: 1.9
Yeast gene YHR142W
  The level of expressed mRNA in the presence of chemical substance/The level of expressed mRNA in the absence of chemical substance: 4.8
Yeast gene YHR210C, ratio of DNA chip fluorescence intensity to that without chemical substance
  The level of expressed mRNA in the presence of chemical substance/ (in its absence), gene YHR210C: 0.5
Yeast gene YIL006W, ratio of DNA chip fluorescence intensity to that without chemical substance
  The level of expressed mRNA in the presence of chemical substance/ (in its absence), gene YIL006W: 1.5
Yeast gene YIL011W
  The level of expressed mRNA in the presence of chemical substance/ (ratio to absence of chemical substance): 0.9
Yeast gene YIL123W
  The level of expressed mRNA in the presence of chemical substance/The level of expressed mRNA in the absence of chemical substance: 4.8
Yeast gene YIL140W
  The level of expressed mRNA in the presence of chemical substance/The level of expressed mRNA in the absence of chemical substance: 3.3
Yeast gene YJL070C, ratio of DNA chip fluorescence intensity to that without chemical substance
  The level of expressed mRNA in the presence of chemical substance/ (in its absence), gene YJL070C: 3.5
